≈ marks a conversion by molar mass, not a printed value. Calls of active or inactive are those of the source. No cut-off for these calls is given here.
How the values were obtained:
Nannizzia gypsea [1] = experiment: Antifungal activity against Microsporum gypseum assessed as fungal growth inhibition incubated for 4 days by CLSI protocol based agar microdilution method; format: functional; conditions: 96 h, time 4 day
Cryptococcus neoformans [2] = experiment: Antifungal activity against Cryptococcus neoformans ATCC 90113 assessed as fungal growth inhibition by CLSI protocol based assay; format: functional
Vero [3] = experiment: Cytotoxicity against African green monkey Vero cells at 50 ug/ml incubated for 24 hrs by MTT assay; format: cell-based; conditions: chlorocebus sabaeus, dose 50 µg/ml
Staphylococcus aureus [4] = experiment: Antibacterial activity against Staphylococcus aureus ATCC 25923 assessed as bacterial growth inhibition by CLSI protocol based assay; format: functional
Staphylococcus aureus [5] = experiment: Antibacterial activity against methicillin-resistant Staphylococcus aureus assessed as bacterial growth inhibition at 50 ug/ml by CLSI protocol based assay; format: functional, organism-based; conditions: dose 50.0 µg/ml
Cryptococcus neoformans [6] = experiment: Antifungal activity against Cryptococcus neoformans ATCC 90113 assessed as fungal growth inhibition incubated for 24 to 48 hrs by CLSI protocol based agar microdilution method; format: functional; conditions: time 24-48 hrs
Nannizzia gypsea [7] = experiment: Antifungal activity against Microsporum gypseum assessed as fungal growth inhibition at 50 ug/ml by CLSI protocol based assay; format: functional, organism-based; conditions: dose 50.0 µg/ml
Candida albicans [8] = experiment: Antifungal activity against Candida albicans NCPF 90028 assessed as fungal growth inhibition at 50 ug/ml by CLSI protocol based assay; format: functional, organism-based; conditions: dose 50.0 µg/ml
Candida albicans [9] = experiment: Antifungal activity against Candida albicans NCPF 90028 assessed as fungal growth inhibition incubated for 24 to 48 hrs by CLSI protocol based agar microdilution method; format: functional; conditions: time 24-48 hrs
Vero [10] = experiment: Cytotoxicity against African green monkey Vero cells by colorimetric assay; format: cell-based; conditions: Chlorocebus sabaeus
Staphylococcus aureus [11] = experiment: Antibacterial activity against Staphylococcus aureus ATCC 25923 assessed as bacterial growth inhibition incubated for 18 hrs by CLSI protocol based agar microdilution method; format: functional
Staphylococcus aureus [12] = experiment: Antibacterial activity against methicillin-resistant Staphylococcus aureus assessed as bacterial growth inhibition by CLSI protocol based assay; format: functional
Staphylococcus aureus [13] = experiment: Antibacterial activity against methicillin-resistant Staphylococcus aureus assessed as bacterial growth inhibition incubated for 18 hrs by CLSI protocol based agar microdilution method; format: functional
Vero [14] = experiment: Cytotoxicity against African green monkey Vero cells incubated for 24 hrs by MTT assay; format: cell-based; conditions: Chlorocebus sabaeus
Candida albicans [15] = experiment: Antifungal activity against Candida albicans NCPF 90028 assessed as fungal growth inhibition by CLSI protocol based assay; format: functional
Nannizzia gypsea [16] = experiment: Antifungal activity against Microsporum gypseum assessed as fungal growth inhibition by CLSI protocol based assay; format: functional
Staphylococcus aureus [17] = experiment: Antibacterial activity against Staphylococcus aureus ATCC 25923 assessed as bacterial growth inhibition at 50 ug/ml by CLSI protocol based assay; format: functional, organism-based; conditions: dose 50.0 µg/ml

Row | SMILES | MIC (Nannizzia gypsea [1]) [µg/mL] | MIC (Cryptococcus neoformans [2]) [µg/mL] | Activity (Vero [3]) | MIC (Staphylococcus aureus [4]) [µg/mL] | Activity (Staphylococcus aureus [5]) | MIC (Cryptococcus neoformans [6]) [µg/mL] | Activity (Nannizzia gypsea [7]) | Activity (Candida albicans [8]) | MIC (Candida albicans [9]) [µg/mL] | IC50 (Vero [10]) [µg/mL] | MIC (Staphylococcus aureus [11]) [µg/mL] | MIC (Staphylococcus aureus [12]) [µg/mL] | MIC (Staphylococcus aureus [13]) [µg/mL] | IC50 (Vero [14]) [µg/mL] | MIC (Candida albicans [15]) [µg/mL] | MIC (Nannizzia gypsea [16]) [µg/mL] | Activity (Staphylococcus aureus [17])
1 | C/C=C(\C)c1cc(O)c(C)c2c1Oc1cc(O)cc(C)c1C(=O)O2 | 1 (≈ 3.06 µM) | 200 (≈ 613 µM) | Non-Toxic | 128 (≈ 392 µM) | inactive | 0.25 (≈ 0.766 µM) | inactive | inactive | – | – | – | – | – | – | – | – | –
2 | C[C@@H]1[C@H](O)[C@@H](C)/C=C/C=C/C=C/C=C/C=C/C=C/C=C/[C@H](O[C@@H]2O[C@H](C)[C@@H](O)[C@H](N)[C@@H]2O)C[C@@H]2O[C@](O)(C[C@@H](O)C[C@@H](O)[C@H](O)CC[C@@H](O)C[C@@H](O)CC(=O)O[C@H]1C)C[C@H](O)[C@H]2C(=O)O [AMPHOTERICIN B] | – | – | – | – | – | 2 (≈ 2.16 µM) | – | – | 0.5 (≈ 0.541 µM) | – | – | – | – | – | – | – | –
3 | Clc1ccccc1C(c1ccccc1)(c1ccccc1)n1ccnc1 [CLOTRIMAZOLE] | 2 (≈ 5.8 µM) | – | – | – | – | – | – | – | – | – | – | – | – | – | – | – | –
4 | Cc1c2ccncc2c(C)c2c1[nH]c1ccccc12 [ELLIPTECINE] | – | – | – | – | – | – | – | – | – | 4 (≈ 16.2 µM) | – | – | – | – | – | – | –
5 | C/C=C(\C)c1c(Cl)c(O)c(C)c2c1Oc1c(Cl)c(O)c(Cl)c(C)c1C(=O)O2 | 1 (≈ 2.33 µM) | 8 (≈ 18.6 µM) | – | 2 (≈ 4.65 µM) | – | 0.25 (≈ 0.582 µM) | inactive | inactive | 0.25 (≈ 0.582 µM) | 4.6 (≈ 10.7 µM) | 0.25 (≈ 0.582 µM) | 2 (≈ 4.65 µM) | 0.5 (≈ 1.16 µM) | 110 (≈ 256 µM) | – | – | –
6 | C/C=C(\C)c1c(Cl)c(OC)c(C)c2c1Oc1c(Cl)c(O)c(Cl)c(C)c1C(=O)O2 | 1 (≈ 2.25 µM) | 16 (≈ 36.1 µM) | – | 4 (≈ 9.01 µM) | – | 0.25 (≈ 0.563 µM) | inactive | inactive | 0.25 (≈ 0.563 µM) | 4.6 (≈ 10.4 µM) | 0.25 (≈ 0.563 µM) | 8 (≈ 18 µM) | 0.5 (≈ 1.13 µM) | 57 (≈ 128 µM) | – | – | –
7 | C/C=C(\C)c1c(Cl)c(O)c(C)c2c1Oc1cc(O)c(Cl)c(C)c1C(=O)O2 | 1 (≈ 2.53 µM) | 128 (≈ 324 µM) | – | 2 (≈ 5.06 µM) | – | 0.25 (≈ 0.633 µM) | – | – | 0.25 (≈ 0.633 µM) | 4.6 (≈ 11.6 µM) | 0.25 (≈ 0.633 µM) | 1 (≈ 2.53 µM) | 0.5 (≈ 1.27 µM) | 8.9 (≈ 22.5 µM) | 200 (≈ 506 µM) | – | –
8 | C/C=C(\C)c1cc(O)c(C)c2c1C(=O)Oc1c(C)c(O)c(C(=O)O)c(/C(C)=C/C)c1O2 | 1 (≈ 2.36 µM) | 64 (≈ 151 µM) | Non-Toxic | – | – | 0.25 (≈ 0.589 µM) | inactive | inactive | 0.25 (≈ 0.589 µM) | 4.6 (≈ 10.8 µM) | 0.25 (≈ 0.589 µM) | 64 (≈ 151 µM) | 0.5 (≈ 1.18 µM) | – | – | 200 (≈ 471 µM) | –
9 | C/C=C(\C)c1cc(O)c(C)c2c1C(=O)Oc1c(C)c(O)c(Cl)c(/C(C)=C/C)c1O2 | 1 (≈ 2.41 µM) | 0.5 (≈ 1.21 µM) | – | 0.5 (≈ 1.21 µM) | – | 0.25 (≈ 0.603 µM) | – | inactive | 0.25 (≈ 0.603 µM) | 4.6 (≈ 11.1 µM) | 0.25 (≈ 0.603 µM) | 0.5 (≈ 1.21 µM) | 0.5 (≈ 1.21 µM) | 16 (≈ 38.6 µM) | – | – | –
10 | C/C=C(\C)c1cc(O)c(C)c(OC(=O)c2c(/C(C)=C/C)cc(O)c(C)c2O)c1 [AGONODEPSIDE A] | – | – | – | – | – | 0.25 (≈ 0.654 µM) | – | – | – | – | 0.25 (≈ 0.654 µM) | 2 (≈ 5.23 µM) | 0.25 (≈ 0.654 µM) | – | – | – | –
11 | C/C=C(\C)c1cc(O)c(C)c2c1Oc1cc(O)c(Cl)c(C)c1C(=O)O2 | 1 (≈ 2.77 µM) | 32 (≈ 88.7 µM) | – | 8 (≈ 22.2 µM) | – | 0.25 (≈ 0.693 µM) | – | – | 0.25 (≈ 0.693 µM) | 4.6 (≈ 12.7 µM) | – | 8 (≈ 22.2 µM) | 0.5 (≈ 1.39 µM) | 86 (≈ 238 µM) | 8 (≈ 22.2 µM) | 8 (≈ 22.2 µM) | –
12 | C=C(c1cc(O)c(C)c2c1Oc1cc(O)cc(C)c1C(=O)O2)[C@H](C)O | 0.5 (≈ 1.46 µM) | – | – | – | – | 0.5 (≈ 1.46 µM) | – | – | – | – | – | – | – | – | – | – | –
13 | C/C=C(\C)c1cc(O)c(C)c2c1Oc1c(C)c(O)cc(/C(C)=C/C)c1C(=O)O2 | 1 (≈ 2.63 µM) | 1 (≈ 2.63 µM) | – | 2 (≈ 5.26 µM) | – | 0.25 (≈ 0.657 µM) | – | inactive | 0.25 (≈ 0.657 µM) | – | 0.25 (≈ 0.657 µM) | 1 (≈ 2.63 µM) | 0.5 (≈ 1.31 µM) | 17 (≈ 44.7 µM) | – | – | –
14 | C/C=C(\C)c1cc(O)c(C)c(O)c1C(=O)Oc1cc2c(c(O)c1C)C(=O)O[C@@]2(C)CC | 1 (≈ 2.34 µM) | 200 (≈ 469 µM) | – | 200 (≈ 469 µM) | – | 0.25 (≈ 0.586 µM) | inactive | inactive | 0.25 (≈ 0.586 µM) | 4.6 (≈ 10.8 µM) | 0.25 (≈ 0.586 µM) | 200 (≈ 469 µM) | 0.5 (≈ 1.17 µM) | 45 (≈ 106 µM) | – | – | –
15 | C/C=C(\C)c1cc(OC(=O)c2c(C)cc(O)cc2O)c(C)c(O)c1C(=O)O | 1 (≈ 2.69 µM) | 32 (≈ 85.9 µM) | – | 128 (≈ 344 µM) | – | 0.25 (≈ 0.671 µM) | inactive | inactive | 0.25 (≈ 0.671 µM) | 4.6 (≈ 12.4 µM) | 0.25 (≈ 0.671 µM) | 128 (≈ 344 µM) | 0.5 (≈ 1.34 µM) | 110 (≈ 295 µM) | – | – | –
16 | C/C=C(\C)c1cc(O)c(C)c(O)c1C(=O)Oc1cc(/C(C)=C/C)c(C(=O)O)c(O)c1C [AGONODEPSIDE B] | 0.5 (≈ 1.17 µM) | – | – | – | – | 0.5 (≈ 1.17 µM) | – | – | – | – | – | 16 (≈ 37.5 µM) | 0.5 (≈ 1.17 µM) | – | – | – | –
17 | C/C=C(\C)c1c2c(c(C)c(O)c1C(=O)O)OC(=O)c1c(C)cc(O)cc1O2 | 1 (≈ 2.7 µM) | 200 (≈ 540 µM) | Non-Toxic | – | inactive | 0.25 (≈ 0.675 µM) | inactive | inactive | 0.25 (≈ 0.675 µM) | 4.6 (≈ 12.4 µM) | 0.25 (≈ 0.675 µM) | – | 0.5 (≈ 1.35 µM) | – | – | – | inactive
18 | COC(=O)c1c(C)cc(O)cc1O [METHYL ORSELLINATE] | 1 (≈ 5.49 µM) | 200 (≈ 1100 µM) | Non-Toxic | – | inactive | 0.25 (≈ 1.37 µM) | inactive | inactive | 0.25 (≈ 1.37 µM) | 4.6 (≈ 25.3 µM) | 0.25 (≈ 1.37 µM) | – | 0.5 (≈ 2.74 µM) | – | – | – | inactive

Reference: ChEMBL document CHEMBL4811255, “Antibacterial and Antifungal Polyketides from the Fungus Aspergillus unguis PSU-MF16” (J Nat Prod, 2021)
